Measured values taken from article PMC6588697, “Lugdunin amplifies innate immune responses in the skin in synergy with host- and microbiota-derived factors” (Nature Communications, 2019).
Values joined by “and” are separate entries in the source; they are usually repeats but may differ in a detail not shown here. Identical values can stand only once.

Tests used:
Type in all cases: cell-based, human
[1] = tested on: PHKs; assay: CXCL8 expression in PHKs (qRT-PCR, normalized to actin); conditions: PHKs, 5 h
Description: Fig. 1 Lugdunin sensitizes epithelial cells for innate immune defense. a Primary human keratinocytes (PHKs) were pretreated with S. epidermidis conditioned medium (CM), indicated lugdunin concentrations, or the combination of both for 20 h. Subsequently, cells were infected with S. aureus for 1.5 h followed by cell lysis and determination of colony-forming units (CFUs). Shown is one representative experiment of three independent experiments with six technical replicates ± s.e.m. n.s., not significant. b Dorsal skin of mice was pretreated with S. epidermidis CM, 1.5 µg lugdunin alone or in combination with S. epidermidis CM for 24 h. Subsequently, S. aureus CFUs were determined. Horizontal lines represent the mean of each group ± s.e.m. c PHKs were treated with 2 μM lugdunin or with S. epidermidis CM alone or in combination for 20 h and subsequently expression of indicated antimicrobial peptides (AMPs) (respective protein names in brackets) was analyzed and normalized to actin. Shown is one representative experiment of three independent experiments with two technical replicates ± s.e.m. d PHKs were treated with 2 µM lugdunin or 100 ng/mL Pam2Cys for 5 h and subsequently the concentration of indicated cytokines in the supernatant was analyzed by LEGENDplex^TM (BioLegend). Shown is one representative experiment of three independent experiments with two technical replicates ± s.e.m. e PHKs were treated with increasing concentrations of lugdunin or 100 ng/mL Pam2Cys or Pam3Cys for 5 h and subsequently expression of chemokine (C-X-C motif) ligand 8 (CXCL8) was analyzed and normalized to actin. Shown is one representative experiment of three independent experiments, each with two technical replicates ± s.e.m. f, g Indicated cells were treated with 2 µM lugdunin or 100 ng/mL Pam2Cys as a positive control for 5 h and subsequently the concentration of CXCL8 (f) and interleukin-1α (IL-1α) (g) in the supernatant was analyzed by LEGENDplex^TM (BioLegend) and enzyme-linked immunosorbent assay (ELISA) (R&D Systems). Shown is one representative experiment of three independent experiments with two technical replicates ± s.e.m. Significant differences to control treatments were analyzed by ordinary one-way analysis of variance (ANOVA) followed by Dunnett’s multiple comparisons test (*P < 0.05; **P < 0.01; ***P < 0.001; ****P < 0.0001). n.d. = not detected. Source data are provided as a Source Data file
Fig. 4 Lugdunin amplifies the commensal-induced chemokine (C-X-C motif) ligand (CXCL8) induction. a Primary human keratinocytes (PHKs) were either treated with 2 μM of human antimicrobial peptides (AMPs) (black bars) or lugdunin (blue bars), or 0.8 μM (pro)-gallidermin or nisin (black bars), or in combination with S. epidermidis conditioned medium (CM) (gray and red striped bars) for 5 h, and subsequently expression of CXCL8 was analyzed and normalized to actin. Shown is one representative experiment of three independent experiments with two technical replicates ± s.e.m. b PHKs were treated with 2 μM human AMPs, 2 μM lugdunin, 0.8 μM of the other bacteriocins (gray bars) or the correspondent peptide combinations (white bars), or 50 ng/mL Pam2Cys, 10 ng/mL IL-1α, or S. epidermidis CM as controls (black bars), for 5 h and subsequently expression of CXCL8 was analyzed and normalized to actin. Shown is one representative experiment of three independent experiments with two technical replicates ± s.e.m. Significant differences to control treatments were analyzed by ordinary one-way analysis of variance (ANOVA) followed by Dunnett’s multiple comparisons test (***P < 0.001; ****P < 0.0001). Source data are provided as a Source Data file
After 5 h or 20 h of peptide treatment, PHKs were washed once with PBS, followed by the addition of RNA lysis buffer directly into the well. Total RNA was extracted using the Nucleospin RNA Kit (Macherey-Nagel) according to the manufacturer’s protocol. […]

[2] = tested on: HNEpCs; assay: CXCL8 expression in HNEpCs (qRT-PCR); conditions: 5 h, 100 ng/mL Pam2Cys or Pam3Cys, two technical replicates, sheet Supp Fig 1f
Description: (§1) Quantitative reverse transcription-polymerase chain reaction (qRT-PCR) was performed in 10 µL reaction volume with SYBR^TM Green PCR Master Mix (Thermo Fisher) according to the manufacturer’s instructions using a LightCycler 96 (Roche Life Science). The initial denaturation step was at 95 °C for 5 min, followed by 40 cycles with 10 s each for the denaturation step at 95 °C, the annealing at individual temperature, and the elongation at 72 °C. Primer sequences and respective annealing temperatures are listed in Supplementary Table 1. […]
(§2) 31 g+h+i: HNEpCs (b), HTEpCs (c) or PBMCs (d) were treated with increasing
(§3) 32 concentrations of lugdunin (grey bars) or 100 ng/mL Pam2Cys or Pam3Cys (white
(§4) 33 bars) as positive controls for 5 hours and subsequently expression of CXCL8 was
(§5) 34 analyzed and normalized to actin. Black bar: medium control. Shown is one
(§6) 35 representative experiment of three independent experiments with two technical
(§7) 36 replicates +/-s.e.m. Significant differences to control treatments were analyzed by
(§8) 37 ordinary one-way ANOVA followed by Dunnett’s multiple comparisons test (*P<0.05; […]

[3] = tested on: HTEpCs; assay: CXCL8 expression in HTEpCs (qRT-PCR); conditions: 5 h, 100 ng/mL Pam2Cys or Pam3Cys, two technical replicates, sheet Supp Fig 1g
Description: as §1, §2, §3, §4, §5, §6, §7, §8

[4] = tested on: PBMCs; assay: CXCL8 expression in PBMCs (qRT-PCR); conditions: 5 h, 100 ng/mL Pam2Cys or Pam3Cys, two technical replicates, sheet Supp Fig 1h
Description: Quantitative reverse transcription-polymerase chain reaction (qRT-PCR) was performed in 10 µL reaction volume with SYBR^TM Green PCR Master Mix (Thermo Fisher) according to the manufacturer’s instructions using a LightCycler 96 (Roche Life Science). The initial denaturation step was at 95 °C for 5 min, followed by 40 cycles with 10 s each for the denaturation step at 95 °C, the annealing at individual temperature, and the elongation at 72 °C. Primer sequences and respective annealing temperatures are listed in Supplementary Table 1.
Human PBMCs were isolated from the peripheral blood of healthy donors upon obtaining informed consent by Ficoll-Histopaque (Biochrom) gradient centrifugation. Cells were washed once in PBS and adjusted to a cell number of 1 × 10^6 mL^−1 in RPMI-1640 medium (Gibco/Life Technologies) containing 10% FBS (Biochrom/Merck Millipore). […]
as §2, §3, §4, §5, §6, §7, §8

Which results are given for Pam3Cys [reference compound]?
CXCL8 expression normalized to actin ([1]; 100 ng/mL Pam2Cys or Pam3Cys, medium = 1, technical replicates, Fig 1e): 1.261 and 1.177; CXCL8 fold induction [2]: 22.316 and 30.696; CXCL8 fold induction [3]: 3.972 and 3.732; CXCL8 fold induction [4]: 2.838 and 2.819

B1: IL-1: interleukin-1α, 10 ng/mL, control in Fig 4b (protein, UniProt P01583 113-271, looked up)
Interleukin-1 alpha: SAPFSFLSNVKYNFMRIIKYEFILNDALNQSIIRANDQYLTAAALHNLDEAVKFDMGAYKSSKDDAKITVILRISKTQLYVTAQDEDQPVLLKEMPEIPKTITGSETNLLFFWETHGTKNYFTSVAHPNLFIATKQDYWVCLAGGPPSITDFQILENQA
With B1 as the molecule, how does the “CXCL8 expression normalized to actin” value ([1]; 2 µM human AMPs, 2 µM lugdunin, 0.8 µM other bacteriocins or their combinations, 50 ng/mL Pam2Cys, 10 ng/mL IL-1α, S. epidermidis CM, two technical replicates, Fig 4b) read?
Its value is 153.545 and 150.36.
